pEC50, pIC50: −log10 of the molar value.
Key:
GR = molecular target: T1, GR (Homo sapiens, UniProt P04150); experiment: CHO-GR B4.8 MMTV-luciferase induction of gene expression (agonistic); type: cell-based; design: expressed in transfected cells; details: for Max. eff., MMTV-luc induction: relative to maximal effect of prednisolone (100%)
T1 sequence (P04150 1-777): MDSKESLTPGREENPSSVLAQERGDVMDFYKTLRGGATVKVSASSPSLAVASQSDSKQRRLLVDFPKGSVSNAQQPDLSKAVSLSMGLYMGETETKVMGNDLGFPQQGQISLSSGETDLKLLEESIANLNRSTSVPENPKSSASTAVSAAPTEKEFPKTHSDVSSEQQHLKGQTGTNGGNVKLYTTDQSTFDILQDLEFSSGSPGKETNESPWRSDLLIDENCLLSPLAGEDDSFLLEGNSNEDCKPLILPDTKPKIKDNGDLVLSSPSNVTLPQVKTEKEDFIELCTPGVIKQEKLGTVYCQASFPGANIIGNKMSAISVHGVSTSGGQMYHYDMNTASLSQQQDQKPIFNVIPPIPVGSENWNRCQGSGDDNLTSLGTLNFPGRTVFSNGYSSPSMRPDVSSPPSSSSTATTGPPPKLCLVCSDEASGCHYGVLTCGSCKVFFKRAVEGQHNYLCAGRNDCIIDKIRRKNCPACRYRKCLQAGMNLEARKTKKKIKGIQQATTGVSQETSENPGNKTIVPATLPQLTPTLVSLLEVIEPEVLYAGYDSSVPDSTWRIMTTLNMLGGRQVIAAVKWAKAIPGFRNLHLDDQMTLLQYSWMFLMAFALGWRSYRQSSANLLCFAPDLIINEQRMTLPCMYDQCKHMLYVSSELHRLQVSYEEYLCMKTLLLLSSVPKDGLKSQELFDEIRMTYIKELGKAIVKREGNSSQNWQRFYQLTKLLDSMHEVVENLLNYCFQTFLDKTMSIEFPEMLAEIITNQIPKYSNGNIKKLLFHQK
Text: (§1) For monitoring both human steroid receptor agonistic as well as antagonistic activity of compounds, Chinese hamster ovary (CHO) K1 cells stably co-transfected with the specific human steroid receptor and its respective reporter construct were used (as previously described).
(§2) For human glucocorticoid receptor (GR)-specific activity CHO-GR B4.8 cells containing both recombinant human GR as well as a reporter construct consisting of the mouse mammary tumor virus (MMTV) promotor and the luciferase reporter gene, were used. Compound was incubated alone (in the agonistic setup) or with 50 nM dexamethasone (in the antagonistic setup) overnight. Hereafter, 200 µl medium was removed and 50 µl luciferine substrate solution from the LucLite luminescence kit (Packard, Meriden, USA) was added. […] Percentage maximal antagonistic efficacy was related to the maximal antagonistic efficacy of reference GR antagonist Org 34116. Similar procedures were followed for the other human steroid receptor assays (for more detailed information see Supportive Information) (SI text).
For human glucocorticoid receptor (GR)-specific activity CHO-GR B4.8 cells containing both recombinant human GR as well as a reporter construct consisting of the mouse mammary tumor virus (MMTV) promotor and the luciferase reporter gene, were used. Compound was incubated alone (in the agonistic setup) or with 50 nM dexamethasone (in the antagonistic setup) in microtiter white culture plates seeded with 2.4 x 10^4 cells / 200 µl Dulbecco’s MEM/Nutrient Mix F12 medium (Gibco) supplemented with 5% charcoal treated defined bovine calf serum supplement (DBCSS, Hyclone, Utah, USA), and 10 U/ml Penicillin-10μg/ml Streptomycin (GibcoBRL) overnight at 37°C in the dark under a humidified atmosphere flushed with 5% CO2 in air. Hereafter, 200 µl medium was removed and 50 µl luciferine substrate solution from the LucLite luminescence kit (Packard, Meriden, USA) was added. After 10 minutes (when cell lysis was complete) luminescence of each sample was counted using a Topcount microplate luminescence counter. Percentage maximal agonistic efficacy was related to the maximal efficacy of dexamethasone. Percentage maximal antagonistic efficacy was related to the maximal antagonistic efficacy of reference GR antagonist Org 34116. EC50 value was calculated by 4-parameter curve fitting using the effect of 6 compound concentrations.

[1] = molecular target: T2, human progesterone receptor B (PR-B) (Homo sapiens, UniProt P06401); experiment: CHO steroid receptor reporter assay, PR-B / MMTV-Luc; type: cell-based
T2 construct: expressed in transfected cells; host or cells: CHO K1
T2 sequence (P06401 1-933): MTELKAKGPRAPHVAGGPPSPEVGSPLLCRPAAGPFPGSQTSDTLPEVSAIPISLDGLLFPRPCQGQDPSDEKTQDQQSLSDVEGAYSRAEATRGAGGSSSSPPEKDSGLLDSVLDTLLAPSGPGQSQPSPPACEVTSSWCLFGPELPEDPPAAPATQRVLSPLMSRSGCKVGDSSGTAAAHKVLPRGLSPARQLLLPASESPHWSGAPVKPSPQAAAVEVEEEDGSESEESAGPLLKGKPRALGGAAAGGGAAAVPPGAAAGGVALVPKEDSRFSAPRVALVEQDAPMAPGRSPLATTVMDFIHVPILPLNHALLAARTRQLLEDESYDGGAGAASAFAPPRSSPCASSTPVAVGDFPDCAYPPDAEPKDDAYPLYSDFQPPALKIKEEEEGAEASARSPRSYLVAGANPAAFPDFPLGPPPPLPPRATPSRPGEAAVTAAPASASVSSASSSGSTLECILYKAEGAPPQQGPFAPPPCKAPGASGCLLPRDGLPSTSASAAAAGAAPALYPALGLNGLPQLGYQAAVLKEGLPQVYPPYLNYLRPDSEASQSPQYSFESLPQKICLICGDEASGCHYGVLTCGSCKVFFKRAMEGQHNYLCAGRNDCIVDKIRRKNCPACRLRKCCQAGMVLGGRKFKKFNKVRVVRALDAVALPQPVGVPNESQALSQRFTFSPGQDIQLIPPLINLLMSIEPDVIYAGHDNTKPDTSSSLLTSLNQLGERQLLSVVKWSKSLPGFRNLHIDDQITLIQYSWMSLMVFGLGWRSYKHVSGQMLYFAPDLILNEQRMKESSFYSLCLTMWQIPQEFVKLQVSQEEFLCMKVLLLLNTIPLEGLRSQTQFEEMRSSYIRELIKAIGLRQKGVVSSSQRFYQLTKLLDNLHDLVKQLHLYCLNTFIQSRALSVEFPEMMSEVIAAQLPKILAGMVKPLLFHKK
Text: as §1, §2
Similar procedures were followed for the other human steroid receptor assays containing combinations of human progesterone receptor B (PR-B) and MMTV-Luc, human androgen receptor (AR) and MMTV-Luc, human chimeric glucocorticoid-mineralocorticoid receptor (GGM, Trapp et al. (1994), Neuron 13: 1457) and MMTV-Luc, human estrogen receptor alpha (ERα) and rat oxytocin-Luc (45), and human estrogen receptor beta (ERβ) and rat oxytocin-Luc, respectively.

| SMILES | pEC50 (GR; CHO cells co-transfected with human GR and MMTV-luciferase, mean (±SD), read-out: EC50, MMTV-luc induction) | Max. eff., MMTV-luc induction (GR) [%] | Max. eff., MMTV-luc induction (GR; listed as Org) | pIC50 ([1]; mean (±SD), read-out: IC50 (antagonist)) | Emax ([1]; read-out: % efficacy (antagonist)) [%] | pEC50 ([1]; read-out: EC50 (agonist)) | % agonist potency ([1]; relative to reference compound) [%] | % antagonist potency ([1]; relative to reference compound, mean (±SD)) |
| --- | --- | --- | --- | --- | --- | --- | --- | --- |
| Cc1nnsc1C(=O)N[C@H]1CCN2c3ccc(C#N)cc3[C@@H](C)c3ccccc3[C@@H]2C1 [Org 214007-0] | 8.29 | 32 | 32 (±8.1) % | 7.71 | > 87 | < 7.00 | <0.03 | 0.46 (±0.2) % |
| C[C@]12C=CC(=O)C=C1CC[C@@H]1[C@@H]2[C@@H](O)C[C@@]2(C)[C@H]1CC[C@]2(O)C(=O)CO [prednisolone, reference compound] | – | 100 | – | – | – | – | – | – |
